Results taken from ChEMBL document CHEMBL1142620, “Anthraquinones and betaenone derivatives from the sponge-associated fungus Microsphaeropsis species: novel inhibitors of protein kinases” (J Nat Prod, 2000).

Tests used:
[1] = target: Epidermal growth factor receptor (Homo sapiens, UniProt P00533); assay: Inhibition of human recombinant EGFR kinase expressed in Sf9 insect cells
[2] = target: Cyclin-dependent kinase 4/cyclin D1 (Homo sapiens, UniProt P11802); assay: Inhibition of human recombinant CDK4/cyclin D1 kinase expressed in Sf9 insect cells
[3] = target: T1, Protein kinase C epsilon type (Mus musculus, UniProt P16054); assay: Inhibition of mouse recombinant PKCepsilon expressed in Sf9 insect cells
T1 sequence (P16054 whole entry): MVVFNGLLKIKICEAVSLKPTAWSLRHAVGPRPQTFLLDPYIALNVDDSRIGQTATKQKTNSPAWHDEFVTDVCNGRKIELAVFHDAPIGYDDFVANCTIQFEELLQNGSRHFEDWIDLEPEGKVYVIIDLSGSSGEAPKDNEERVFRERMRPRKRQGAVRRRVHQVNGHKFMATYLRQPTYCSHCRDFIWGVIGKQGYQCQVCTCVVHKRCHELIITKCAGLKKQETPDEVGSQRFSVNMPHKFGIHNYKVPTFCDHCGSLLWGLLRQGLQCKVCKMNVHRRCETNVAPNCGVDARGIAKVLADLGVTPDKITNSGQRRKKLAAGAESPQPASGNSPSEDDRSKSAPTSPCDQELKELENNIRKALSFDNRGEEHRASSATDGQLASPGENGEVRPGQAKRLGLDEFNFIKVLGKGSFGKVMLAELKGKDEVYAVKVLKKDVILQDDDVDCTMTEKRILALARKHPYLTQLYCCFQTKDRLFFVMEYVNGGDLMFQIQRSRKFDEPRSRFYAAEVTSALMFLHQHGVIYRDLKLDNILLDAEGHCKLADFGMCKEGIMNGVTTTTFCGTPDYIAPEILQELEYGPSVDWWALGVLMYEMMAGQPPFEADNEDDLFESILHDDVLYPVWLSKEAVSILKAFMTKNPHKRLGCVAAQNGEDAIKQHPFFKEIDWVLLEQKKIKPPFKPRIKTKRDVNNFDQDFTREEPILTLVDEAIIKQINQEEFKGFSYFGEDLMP

Sequence of Cyclin-dependent kinase 4/cyclin D1 (P11802 whole entry): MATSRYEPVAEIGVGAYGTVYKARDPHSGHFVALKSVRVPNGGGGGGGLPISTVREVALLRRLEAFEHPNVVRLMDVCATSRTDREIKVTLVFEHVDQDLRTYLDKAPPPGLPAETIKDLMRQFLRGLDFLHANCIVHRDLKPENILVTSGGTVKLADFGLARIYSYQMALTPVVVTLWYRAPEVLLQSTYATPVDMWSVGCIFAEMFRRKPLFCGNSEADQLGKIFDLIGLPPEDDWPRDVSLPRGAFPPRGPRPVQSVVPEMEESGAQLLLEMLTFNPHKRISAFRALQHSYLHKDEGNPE
Sequence of Cyclin-dependent kinase 4/cyclin D1 (P24385 whole entry, further chain): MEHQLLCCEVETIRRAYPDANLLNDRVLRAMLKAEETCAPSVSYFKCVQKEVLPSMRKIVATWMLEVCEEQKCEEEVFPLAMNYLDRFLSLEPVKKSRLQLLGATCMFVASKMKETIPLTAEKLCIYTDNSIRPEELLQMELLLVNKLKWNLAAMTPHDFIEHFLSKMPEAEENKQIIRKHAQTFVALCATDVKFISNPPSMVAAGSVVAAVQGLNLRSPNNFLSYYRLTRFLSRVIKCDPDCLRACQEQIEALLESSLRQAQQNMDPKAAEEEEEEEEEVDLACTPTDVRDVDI
Sequence of Epidermal growth factor receptor (P00533 whole entry): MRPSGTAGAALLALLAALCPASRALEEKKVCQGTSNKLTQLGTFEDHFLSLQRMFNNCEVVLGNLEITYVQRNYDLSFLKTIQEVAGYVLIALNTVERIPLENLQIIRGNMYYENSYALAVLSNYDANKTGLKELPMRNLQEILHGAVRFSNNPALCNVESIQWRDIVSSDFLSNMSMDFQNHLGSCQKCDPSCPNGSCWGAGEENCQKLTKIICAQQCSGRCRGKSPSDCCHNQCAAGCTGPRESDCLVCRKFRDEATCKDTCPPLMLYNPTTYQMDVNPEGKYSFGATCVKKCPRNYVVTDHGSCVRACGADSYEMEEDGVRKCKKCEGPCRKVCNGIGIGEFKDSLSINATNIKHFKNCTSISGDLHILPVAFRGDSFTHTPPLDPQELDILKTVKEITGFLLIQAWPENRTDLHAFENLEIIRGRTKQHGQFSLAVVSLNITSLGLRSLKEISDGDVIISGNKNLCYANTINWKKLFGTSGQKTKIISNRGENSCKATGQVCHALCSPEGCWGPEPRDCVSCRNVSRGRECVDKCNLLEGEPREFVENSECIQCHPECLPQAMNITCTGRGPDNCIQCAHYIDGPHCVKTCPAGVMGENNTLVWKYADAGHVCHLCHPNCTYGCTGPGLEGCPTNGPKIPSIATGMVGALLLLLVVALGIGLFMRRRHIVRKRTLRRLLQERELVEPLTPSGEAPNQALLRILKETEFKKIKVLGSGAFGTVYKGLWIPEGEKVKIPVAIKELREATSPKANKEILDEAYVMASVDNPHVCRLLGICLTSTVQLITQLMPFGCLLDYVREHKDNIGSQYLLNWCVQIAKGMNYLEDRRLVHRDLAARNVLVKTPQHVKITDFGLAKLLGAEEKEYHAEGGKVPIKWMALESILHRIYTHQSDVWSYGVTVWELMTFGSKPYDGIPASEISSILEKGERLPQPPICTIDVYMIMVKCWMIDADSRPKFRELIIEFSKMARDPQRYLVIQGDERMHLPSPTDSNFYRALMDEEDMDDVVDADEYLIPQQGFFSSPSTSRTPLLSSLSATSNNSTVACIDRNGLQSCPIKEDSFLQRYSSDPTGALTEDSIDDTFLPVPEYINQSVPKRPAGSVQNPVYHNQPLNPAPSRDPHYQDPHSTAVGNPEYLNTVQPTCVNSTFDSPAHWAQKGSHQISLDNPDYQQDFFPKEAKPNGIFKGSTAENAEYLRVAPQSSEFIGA

SMILES | IC50 [1] | IC50 [2] | IC50 [3]
CO[C@H](C)c1c(O)cc2c(c1O)C(=O)c1c(cc(O)c(O)c1O)C2=O | 41 µM | 37.5 µM | 54 µM
CCC(C)[C@@H]1[C@@](C)(C(=O)/C=C/N(c2ccccc2)c2ccc3ccccc3c2)[C@H]2[C@H](C)C[C@@](C)(O)C[C@]2(O)C(=O)[C@@]1(C)O (stereo not given in full) | > 100 µM | > 100 µM | > 100 µM
CCC(C)[C@@H]1[C@@](C)(C(=O)/C=C/OC)[C@H]2[C@H](C)C[C@@](C)(O)C[C@]2(O)C(=O)[C@@]1(C)O (stereo not given in full) | 10.5 µM | 11.5 µM | 36 µM

Next, values leading:

IC50 [1] | IC50 [2] | IC50 [3] | SMILES
27.5 µM | 22.5 µM | 27 µM | CO[C@H](C)c1c(O)cc2c(c1O)C(=O)c1c(O)cc(O)cc1C2=O
37.5 µM | 43.5 µM | 18.5 µM | C[C@@H](O)c1c(O)cc2c(c1O)C(=O)c1c(O)cc(O)cc1C2=O
